Test: xn = mol fraction of the nth substance listed
Conditions: 101.3 kPa, Liquid; for viscosity: Capillary tube (Ostwald / Ubbelohde) method; for mass density: Vibrating tube method

COCCOCCOCCOCCOC [2,5,8,11,14-pentaoxapentadecane] + O
Conditions | mass density, 298.15 K [kg/m3] | mass density, 313.15 K [kg/m3] | mass density, 323.15 K [kg/m3] | mass density, 333.15 K [kg/m3] | mass density, 343.15 K [kg/m3] | viscosity, 298.15 K [mPa·s] | viscosity, 313.15 K [mPa·s] | viscosity, 323.15 K [mPa·s] | viscosity, 333.15 K [mPa·s] | viscosity, 343.15 K [mPa·s]
x1 = 0.0199 | 1013.95 | 1006.73 | 1001.25 | 995.13 | 988.58 | 3.11 | 2.11 | 1.71 | 1.41 | 1.18
x1 = 0.051 | 1020.21 | 1011.89 | 1005.7 | 999.35 | 991.92 | 4.04 | 2.64 | 2.12 | 1.69 | 1.41
x1 = 0.1066 | 1038.9 | 1025.7 | 1016.67 | 1007.47 | 998.09 | 6.17 | 3.62 | 2.7 | 2.08 | 1.67
x1 = 0.195 | 1033.66 | 1019.8 | 1010.4 | 1000.92 | 991.28 | 6.22 | 3.77 | 2.86 | 2.24 | 1.8
x1 = 0.3008 | 1026.07 | 1012.12 | 1002.75 | 993.27 | 983.67 | 5.29 | 3.39 | 2.63 | 2.12 | 1.73
x1 = 0.4088 | 1020.42 | 1006.46 | 997.07 | 987.6 | 978.07 | 4.59 | 3.08 | 2.42 | 1.97 | 1.65
x1 = 0.5116 | 1016.56 | 1002.6 | 993.21 | 983.77 | 974.27 | 4.14 | 2.82 | 2.26 | 1.86 | 1.56
x1 = 0.6252 | 1013.52 | 999.55 | 990.2 | 980.79 | 971.34 | 3.81 | 2.65 | 2.15 | 1.78 | 1.51
x1 = 0.7016 | 1011.64 | 997.66 | 988.33 | 978.95 | 969.56 | 3.65 | 2.57 | 2.1 | 1.75 | 1.5
x1 = 0.8037 | 1009.81 | 995.86 | 985.65 | 977.24 | 967.88 | 3.51 | 2.49 | 2.06 | 1.73 | 1.47
x1 = 0.9044 | 1008.44 | 994.51 | 985.23 | 975.95 | 966.66 | 3.41 | 2.44 | 2.01 | 1.69 | 1.45
x1 = 0.9505 | 1007.83 | 993.92 | 984.67 | 975.4 | 966.13 | 3.37 | 2.42 | 2.002 | 1.69 | 1.41
x1 = 1 | 1006.65 | 993.28 | 984.05 | 974.8 | 965.55 | 3.38 | 2.42 | 2.004 | 1.69 | 1.42

From the NIST ThermoML archive (doi:10.1021/je049788h)
